The source of these data is patent publication US10857196B2, “Bicyclic peptide ligands and uses thereof” (BicycleTx Limited, priority 2017, dated 2020).

Numbered stars: 1 amine (or outer) side, 2 acyl side, 3 side chain; on linkers, the order of the positions; unused ones are H or OH. Bridge positions count the residues as written; N and C are the ends. Square brackets hold non-standard residues; d marks the D form. Peptide text beside a SMILES is read from it. X8 = O=C(C[*:1])NCCn1c(=O)n(CCNC(=O)C[*:2])c(=O)n(CCNC(=O)C[*:3])c1=O; X7 = O=S(=O)(CC[*:1])N1CCN(S(=O)(=O)CC[*:2])CCN(S(=O)(=O)CC[*:3])CC1; X6 = O=S(=O)(CC[*:1])c1cc(S(=O)(=O)CC[*:2])cc(S(=O)(=O)CC[*:3])c1; X1 = O=C(CC[*:1])N1CC23CN(C(=O)CC[*:2])CC2(C1)CN(C(=O)CC[*:3])C3; X9 = O=C(C[*:1])N1CCOCCN(C(=O)C[*:2])CCOCCN(C(=O)C[*:3])CCOCC1; X3 = O=C(C[*:1])N1CC23CN(C(=O)C[*:2])CC2(C1)CN(C(=O)C[*:3])C3; X2 = O=C(CC[*:1])N1CCN(C(=O)CC[*:2])CCN(C(=O)CC[*:3])CC1; X5 = O=C(C[*:1])N1CCN(C(=O)C[*:2])CCN(C(=O)C[*:3])CC1; X4 = O=C(C[*:1])NCCN(CCNC(=O)C[*:2])CCNC(=O)C[*:3]; 1Nal = N[C@@H](Cc1cccc2ccccc12)C(=O)O; Tle = CC(C)(C)[C@H](N)C(=O)O Bounds are passed on as bounds.

For one assay, the target named is CAIX (Homo sapiens, UniProt Q16790). Nature of the assay: CAIX competition binding assay (competition fluorescence polarization). Conditions: fluorescent ligand A-(CAECWIDGWVPC)-A-Sar6-K(Fl). As to the method: CAIX Competition Binding Assay Affinity of the peptides of the invention for human CAIX (Ki) was determined using a competition fluorescence polarization assay analogous to that described in Dubois et al. (2011) Radiotherapy and Oncology 99(3), 424-43 using A-(CAECWIDGWVPC)-A-Sar6-K(Fl) (SEQ ID NO: 5) as the fluorescent ligand.
A Ki value designated “A” denotes a Ki of ≤50 nM; a Ki value designated “B” denotes a K, of >50 nM and ≤100 nM; a Ki value designated “C” denotes a Ki of >100 nM and ≤1,000 nM; and a Ki value designated “D” denotes a Ki of >1,000 nM.
One may read the Ki as the equilibrium dissociation constant of an inhibitor or competing ligand from its target. For the compound `CC(C)[C@@H]1NC(=O)[C@H](Cc2c[nH]c3ccccc23)NC(=O)[C@@H]2CSCC(=O)NCCn3c(=O)n(c(=O)n(c3=O)CCNC(=O)CSC[C@H](NC(=O)[C@H](C)NC(=O)CN(C)C(=O)CN(C)C(=O)CN(C)C(=O)CN(C)C(=O)CN(C)C(=O)CN(C)C(=O)CN(C)C(=O)CN(C)C(=O)CN(C)C(=O)CN(C)C(=O)CCN)C(=O)N[C@@H]([C@@H](C)O)C(=O)N[C@@H](CCC(=O)O)C(=O)N2)CCNC(=O)CSC[C@@H](C(=O)O)NC(=O)[C@@H]2CCCN2C(=O)[C@H](C(C)C)NC(=O)[C@H](Cc2c[nH]c3ccccc23)NC(=O)CNC(=O)[C@H](CC(=O)O)NC1=O` [Compound I-19], the Ki is 50 to 100 nM.
On the same count and under the same terms, the figure for `CC(C)[C@@H]1NC(=O)[C@H](Cc2c[nH]c3ccccc23)NC(=O)[C@@H]2CSCC(=O)N3CCN(CCN(CC3)C(=O)CSC[C@H](NC(=O)[C@H](C)NC(=O)CN(C)C(=O)CN(C)C(=O)CN(C)C(=O)CN(C)C(=O)CN(C)C(=O)CN(C)C(=O)CN(C)C(=O)CN(C)C(=O)CN(C)C(=O)CN(C)C(=O)CCN)C(=O)N[C@@H]([C@@H](C)O)C(=O)N[C@@H](CCC(=O)O)C(=O)N2)C(=O)CSC[C@@H](C(N)=O)NC(=O)[C@@H]2CCCN2C(=O)[C@H](C(C)C)NC(=O)[C@H](Cc2c[nH]c3ccccc23)NC(=O)CNC(=O)[C@H](CC(=O)O)NC1=O` [Compound I-21] is 100 to 1000 nM.
The same measure, in the same setting: the same measure for `CC(C)[C@@H]1NC(=O)[C@H](Cc2c[nH]c3ccccc23)NC(=O)[C@@H]2CSCCC(=O)N3CCN(CCN(CC3)C(=O)CCSC[C@H](NC(=O)[C@H](C)NC(=O)CN(C)C(=O)CN(C)C(=O)CN(C)C(=O)CN(C)C(=O)CN(C)C(=O)CN(C)C(=O)CN(C)C(=O)CN(C)C(=O)CN(C)C(=O)CN(C)C(=O)CCN)C(=O)N[C@@H]([C@@H](C)O)C(=O)N[C@@H](CCC(=O)O)C(=O)N2)C(=O)CCSC[C@@H](C(N)=O)NC(=O)[C@@H]2CCCN2C(=O)[C@H](C(C)C)NC(=O)[C@H](Cc2c[nH]c3ccccc23)NC(=O)CNC(=O)[C@H](CC(=O)O)NC1=O` [Compound I-22]: 100 to 1000 nM.

Another assay has as its target MT1-MMP hemopexin domain (Homo sapiens, UniProt P50281). In words: Direct binding fluorescence polarization (anisotropy) assay.
Conditions: not given
The procedure: Direct Binding Fluorescence Polarization or Anisotropy Assays are performed by titrating a constant concentration of fluorescent tracer (here, the fluoresceinated bicyclic peptide to be studied) with its binding partner (here, the MT1-MMP hemopexin domain). As the concentration of binding partner increases during the titration, the polarization signal changes in proportion to the fraction of bound and unbound material. This allows determination of […] (Kd) quantitatively. Assay data can be fit using standard ligand binding equations.
Typically, concentrations of the tracer are ideally well below the Kd of the tracer:titrant pair, and concentrations chosen are usually at ˜1 nM or less. The titrant (binding partner) concentration is varied from 0.1 nM up to typically 5 μM. The range is chosen such that the maximum change in fluorescent polarization can be observed. Buffers employed are phosphate buffered saline in the presence of 0.01% Tween. Experiments were run in black 384 well low-bind/low volume plates (Corning 3820), and the fluorescent polarization signal was measured using a BMG Pherastar FS plate reader. Fluorescent tracers referred to in the text are bicyclic peptides that have been fluoresceinated using 5,6-carboxyfluorescein. Fluoresceination may be performed on the N-terminal amino group of the peptide, which is separated from the bicycle core sequence by a sarcosine spacer (usually Sar5). This can be done during Fmoc solid phase synthesis or post-synthetically (after cyclization with the molecular scaffold reagent and purification) if the N-terminal amino group is unique to the peptide. Fluoresceination can also be performed on the C-terminus, usually on a Lysine introduced as the first C-terminal residue, which is then separated from the bicycle core sequence by a sarcosine spacer (usually Sar6). Thus, N-terminal tracers can have a molecular format described as Fluo-Gly-Sar5-A(BicycleCoreSequence), and (BicycleCoreSequence)-A-Sar6-K(Fluo) for a C-terminally fluoresceinated construct.
Fluorescent tracers used in the Examples are A-(17-69)-A-Sar6-K(Fluo), A-(17-69-07)-A-Sar6-K(Fluo), and A-(17-69-12)-A-Sar6-K(Fluo). Due to the acidic nature of the 17-69 fluorescent peptides, they were typically prepared as concentrated DMSO stocks, from which dilution were prepared in 100 mM Tris pH 8 buffer.
Results from the direct binding fluorescence polarization (anisotropy) assays is depicted in Table 3, below. A K, value designated “A” denotes a Ki of ≤50 nM; a Ki value designated “B” denotes a Ki of >50 nM and ≤100 nM; a Ki value designated “C” denotes a Ki of >100 nM and ≤1,000 nM; and a Ki value designated “D” denotes a Ki of >1,000 nM.
(Fluorescence polarisation rises when a labelled molecule tumbles more slowly, as on binding a larger partner.)
Regarding `C[C@H](N)C(=O)N[C@H]1CSCC(=O)NCCn2c(=O)n3c(=O)n(c2=O)CCNC(=O)CSC[C@H](NC(=O)[C@@H](C)NC(=O)[C@H](Cc2cccc4ccccc24)NC(=O)[C@H](CCC(=O)O)NC(=O)[C@H](CC(N)=O)NC(=O)[C@@H](C)NC1=O)C(=O)N[C@@H](CCC(=O)O)C(=O)N[C@@H](CC(=O)O)C(=O)N[C@@H](Cc1ccccc1)C(=O)N[C@@H](Cc1ccc(O)cc1)C(=O)N[C@@H](CC(=O)O)C(=O)N[C@@H](C(C)(C)C)C(=O)N[C@H](C(N)=O)CSCC(=O)NCC3` [Compound I-52] (H-AC[dA]NE[1Nal][dA]CEDFYD[Tle]C-NH2; linker 2-8-15 via X8), the Ki lay in the range of 100 to 1000 nM.
The compound `C[C@H](N)C(=O)N[C@H]1CSCC(=O)N2CCN3CCN(CC2)C(=O)CSC[C@H](NC(=O)[C@@H](C)NC(=O)[C@H](Cc2cccc4ccccc24)NC(=O)[C@H](CCC(=O)O)NC(=O)[C@H](CC(N)=O)NC(=O)[C@@H](C)NC1=O)C(=O)N[C@@H](CCC(=O)O)C(=O)N[C@@H](CC(=O)O)C(=O)N[C@@H](Cc1ccccc1)C(=O)N[C@@H](Cc1ccc(O)cc1)C(=O)N[C@@H](CC(=O)O)C(=O)N[C@@H](C(C)(C)C)C(=O)N[C@H](C(N)=O)CSCC3=O` [Compound I-54] (H-AC[dA]NE[1Nal][dA]CEDFYD[Tle]C-NH2; linker 2-8-15 via X5) registered a Ki of at most 50 nM.
Compound `C[C@H](N)C(=O)N[C@H]1CSCCC(=O)N2CCN3CCN(CC2)C(=O)CCSC[C@H](NC(=O)[C@@H](C)NC(=O)[C@H](Cc2cccc4ccccc24)NC(=O)[C@H](CCC(=O)O)NC(=O)[C@H](CC(N)=O)NC(=O)[C@@H](C)NC1=O)C(=O)N[C@@H](CCC(=O)O)C(=O)N[C@@H](CC(=O)O)C(=O)N[C@@H](Cc1ccccc1)C(=O)N[C@@H](Cc1ccc(O)cc1)C(=O)N[C@@H](CC(=O)O)C(=O)N[C@@H](C(C)(C)C)C(=O)N[C@H](C(N)=O)CSCCC3=O` [Compound I-55] (H-AC[dA]NE[1Nal][dA]CEDFYD[Tle]C-NH2; linker 2-8-15 via X2) yielded a Ki of 50 to 100 nM.
The same measure, in the same setting: the figure for `C[C@H](N)C(=O)N[C@H]1CSCCC(=O)N2CC34CN5CC3(C2)CN(C4)C(=O)CCSC[C@H](NC(=O)[C@@H](C)NC(=O)[C@H](Cc2cccc3ccccc23)NC(=O)[C@H](CCC(=O)O)NC(=O)[C@H](CC(N)=O)NC(=O)[C@@H](C)NC1=O)C(=O)N[C@@H](CCC(=O)O)C(=O)N[C@@H](CC(=O)O)C(=O)N[C@@H](Cc1ccccc1)C(=O)N[C@@H](Cc1ccc(O)cc1)C(=O)N[C@@H](CC(=O)O)C(=O)N[C@@H](C(C)(C)C)C(=O)N[C@H](C(N)=O)CSCCC5=O` [Compound I-56] (H-AC[dA]NE[1Nal][dA]CEDFYD[Tle]C-NH2; linker 2-8-15 via X1) is 100 to 1000 nM; for `C[C@H](N)C(=O)N[C@H]1CSCC(=O)N2CC34CN5CC3(C2)CN(C4)C(=O)CSC[C@H](NC(=O)[C@@H](C)NC(=O)[C@H](Cc2cccc3ccccc23)NC(=O)[C@H](CCC(=O)O)NC(=O)[C@H](CC(N)=O)NC(=O)[C@@H](C)NC1=O)C(=O)N[C@@H](CCC(=O)O)C(=O)N[C@@H](CC(=O)O)C(=O)N[C@@H](Cc1ccccc1)C(=O)N[C@@H](Cc1ccc(O)cc1)C(=O)N[C@@H](CC(=O)O)C(=O)N[C@@H](C(C)(C)C)C(=O)N[C@H](C(N)=O)CSCC5=O` [Compound I-57] (H-AC[dA]NE[1Nal][dA]CEDFYD[Tle]C-NH2; linker 2-8-15 via X3) it is 100 to 1000 nM.
Still for that read-out and setting: the same measure for `C[C@H](N)C(=O)N[C@H]1CSCC(=O)N2CCOCCN3CCOCCN(CCOCC2)C(=O)CSC[C@H](NC(=O)[C@@H](C)NC(=O)[C@H](Cc2cccc4ccccc24)NC(=O)[C@H](CCC(=O)O)NC(=O)[C@H](CC(N)=O)NC(=O)[C@@H](C)NC1=O)C(=O)N[C@@H](CCC(=O)O)C(=O)N[C@@H](CC(=O)O)C(=O)N[C@@H](Cc1ccccc1)C(=O)N[C@@H](Cc1ccc(O)cc1)C(=O)N[C@@H](CC(=O)O)C(=O)N[C@@H](C(C)(C)C)C(=O)N[C@H](C(N)=O)CSCC3=O` [Compound I-58] (H-AC[dA]NE[1Nal][dA]CEDFYD[Tle]C-NH2; linker 2-8-15 via X9): 50 to 100 nM; for `C[C@H](N)C(=O)N[C@H]1CSCCS(=O)(=O)N2CCN3CCN(CC2)S(=O)(=O)CCSC[C@@H](NC(=O)[C@@H](C)NC(=O)[C@H](Cc2cccc4ccccc24)NC(=O)[C@H](CCC(=O)O)NC(=O)[C@H](CC(N)=O)NC(=O)[C@@H](C)NC1=O)C(=O)N[C@@H](CCC(=O)O)C(=O)N[C@@H](CC(=O)O)C(=O)N[C@@H](Cc1ccccc1)C(=O)N[C@@H](Cc1ccc(O)cc1)C(=O)N[C@@H](CC(=O)O)C(=O)N[C@@H](C(C)(C)C)C(=O)N[C@H](C(N)=O)CSCCS3(=O)=O` [Compound I-59] (H-AC[dA]NE[1Nal][dA][dC]EDFYD[Tle]C-NH2; linker 2-8-15 via X7): over 1000 nM; for `C[C@H](N)C(=O)N[C@H]1CSCC(=O)NCCN2CCNC(=O)CSC[C@@H](C(=O)O)NC(=O)[C@H](C(C)(C)C)NC(=O)[C@H](CC(=O)O)NC(=O)[C@H](Cc3ccc(O)cc3)NC(=O)[C@H](Cc3ccccc3)NC(=O)[C@H](CC(=O)O)NC(=O)[C@H](CCC(=O)O)NC(=O)[C@H](CSCC(=O)NCC2)NC(=O)[C@@H](C)NC(=O)[C@H](Cc2cccc3ccccc23)NC(=O)[C@H](CCC(=O)O)NC(=O)[C@H](CC(N)=O)NC(=O)[C@@H](C)NC1=O` [Compound I-60] (H-AC[dA]NE[1Nal][dA]CEDFYD[Tle]C-OH; linker 2-8-15 via X4): 100 to 1000 nM.
The same measure, in the same setting: the figure for `C[C@H](N)C(=O)N[C@H]1CSCCS(=O)(=O)c2cc3cc(c2)S(=O)(=O)CCSC[C@@H](NC(=O)[C@@H](C)NC(=O)[C@H](Cc2cccc4ccccc24)NC(=O)[C@H](CCC(=O)O)NC(=O)[C@H](CC(N)=O)NC(=O)[C@@H](C)NC1=O)C(=O)N[C@@H](CCC(=O)O)C(=O)N[C@@H](CC(=O)O)C(=O)N[C@@H](Cc1ccccc1)C(=O)N[C@@H](Cc1ccc(O)cc1)C(=O)N[C@@H](CC(=O)O)C(=O)N[C@@H](C(C)(C)C)C(=O)N[C@H](C(N)=O)CSCCS3(=O)=O` [Compound I-61] (H-AC[dA]NE[1Nal][dA][dC]EDFYD[Tle]C-NH2; linker 2-8-15 via X6) is at most 50 nM.
